From ChEMBL document CHEMBL3045618, “Effect of seven new orchard pesticides on Galendromus occidentalis in laboratory studies” (2009)

Columns and labels:
Assay type in all cases: functional
Galendromus occidentalis [1] = assay: Toxicity against Metaseiulus occidentalis adults in bean leaf disk infested with two-spotted spider mites assessed as repellency at 0.3024 g AI/L treated using worst-case laboratory exposure procedure measured after 48 hr (reference value: 13.6%)
Galendromus occidentalis [2] = assay: Toxicity against Metaseiulus occidentalis adults in bean leaf disk infested with two-spotted spider mites assessed as repellency at 0.3024 g AI/L treated using worst-case laboratory exposure procedure measured after 72 hr (reference value: 16.1%)
Galendromus occidentalis [3] = assay: Toxicity against Metaseiulus occidentalis adults in bean leaf disk infested with two-spotted spider mites assessed as repellency at 0.3024 g AI/L treated using worst-case laboratory exposure procedure measured after 24 hr (reference value: 3.6%)
Galendromus occidentalis [4] = assay: Toxicity against Metaseiulus occidentalis adults in bean leaf disk infested with two-spotted spider mites assessed as average number of eggs laid (fecundity) at 0.3024 g AI/L treated using worst-case laboratory exposure procedure measured after 72 hr (reference value: 2.23/day)
Galendromus occidentalis [5] = assay: Toxicity against Metaseiulus occidentalis adults in bean leaf disk infested with two-spotted spider mites assessed as corrected mortality at 0.3024 g AI/L treated using worst-case laboratory exposure procedure measured after 72 hr
Galendromus occidentalis [6] = assay: Toxicity against Metaseiulus occidentalis adults in bean leaf disk infested with two-spotted spider mites assessed as average number of eggs laid (fecundity) at 0.3024 g AI/L treated using worst-case laboratory exposure procedure measured after 48 hr (reference value: 2.30/day)
Galendromus occidentalis [7] = assay: Toxicity against Metaseiulus occidentalis adults in bean leaf disk infested with two-spotted spider mites assessed as average number of eggs laid (fecundity) at 0.3024 g AI/L treated using worst-case laboratory exposure procedure measured after 24 hr (reference value: 2.11/day)
Galendromus occidentalis [8] = assay: Ovicidal activity against Metaseiulus occidentalis eggs in bean leaf disk infested with two-spotted spider mites assessed as corrected cumulative mortality at 240 g/L SC formulation treated using worst-case laboratory exposure procedure measured after 144 hr (reference value: 0.7%)
Galendromus occidentalis [9] = assay: Toxicity against Metaseiulus occidentalis adults in bean leaf disk infested with two-spotted spider mites assessed as repellency at 0.1333 g AI/L treated using worst-case laboratory exposure procedure measured after 72 hr (reference value: 16.1%)
Galendromus occidentalis [10] = assay: Toxicity against Metaseiulus occidentalis adults in bean leaf disk infested with two-spotted spider mites assessed as repellency at 0.1333 g AI/L treated using worst-case laboratory exposure procedure measured after 48 hr (reference value: 13.6%)
Galendromus occidentalis [11] = assay: Toxicity against Metaseiulus occidentalis adults in bean leaf disk infested with two-spotted spider mites assessed as repellency at 0.1333 g AI/L treated using worst-case laboratory exposure procedure measured after 24 hr (reference value: 3.6%)
Galendromus occidentalis [12] = assay: Toxicity against Metaseiulus occidentalis adults in bean leaf disk infested with two-spotted spider mites assessed as average number of eggs laid (fecundity) at 0.1333 g AI/L treated using worst-case laboratory exposure procedure measured after 72 hr (reference value: 2.23/day)
Galendromus occidentalis [13] = assay: Toxicity against Metaseiulus occidentalis adults in bean leaf disk infested with two-spotted spider mites assessed as corrected mortality at 0.1600 g AI/L treated using worst-case laboratory exposure procedure measured after 72 hr
Galendromus occidentalis [14] = assay: Toxicity against Metaseiulus occidentalis adults in bean leaf disk infested with two-spotted spider mites assessed as corrected mortality at 2x0.1600 g AI/L treated using worst-case laboratory exposure procedure measured after 72 hr
Galendromus occidentalis [15] = assay: Toxicity against Metaseiulus occidentalis adults in bean leaf disk infested with two-spotted spider mites assessed as average number of eggs laid (fecundity) at 0.1333 g AI/L treated using worst-case laboratory exposure procedure measured after 48 hr (reference value: 2.30/day)
Galendromus occidentalis [16] = assay: Toxicity against Metaseiulus occidentalis adults in bean leaf disk infested with two-spotted spider mites assessed as average number of eggs laid (fecundity) at 0.1333 g AI/L treated using worst-case laboratory exposure procedure measured after 24 hr (reference value: 2.11/day)
Galendromus occidentalis [17] = assay: Toxicity against Metaseiulus occidentalis adults in bean leaf disk infested with two-spotted spider mites assessed as corrected mortality at 4x0.1600 g AI/L treated using worst-case laboratory exposure procedure measured after 72 hr
Galendromus occidentalis [18] = assay: Ovicidal activity against Metaseiulus occidentalis eggs in bean leaf disk infested with two-spotted spider mites assessed as corrected cumulative mortality at 480 g/L SC formulation treated using worst-case laboratory exposure procedure measured after 144 hr (reference value: 0.7%)
Galendromus occidentalis [19] = assay: Toxicity against Metaseiulus occidentalis adults in bean leaf disk infested with two-spotted spider mites assessed as repellency at 0.1600 g AI/L treated using worst-case laboratory exposure procedure measured after 72 hr (reference value: 16.1%)
Galendromus occidentalis [20] = assay: Toxicity against Metaseiulus occidentalis adults in bean leaf disk infested with two-spotted spider mites assessed as repellency at 0.1600 g AI/L treated using worst-case laboratory exposure procedure measured after 48 hr (reference value: 13.6%)
Galendromus occidentalis [21] = assay: Toxicity against Metaseiulus occidentalis adults in bean leaf disk infested with two-spotted spider mites assessed as repellency at 0.1600 g AI/L treated using worst-case laboratory exposure procedure measured after 24 hr (reference value: 3.6%)
Galendromus occidentalis [22] = assay: Toxicity against Metaseiulus occidentalis adults in bean leaf disk infested with two-spotted spider mites assessed as average number of eggs laid (fecundity) at 0.1600 g AI/L treated using worst-case laboratory exposure procedure measured after 72 hr (reference value: 2.23/day)
Galendromus occidentalis [23] = assay: Toxicity against Metaseiulus occidentalis adults in bean leaf disk infested with two-spotted spider mites assessed as average number of eggs laid (fecundity) at 0.1600 g AI/L treated using worst-case laboratory exposure procedure measured after 48 hr (reference value: 2.30/day)
Galendromus occidentalis [24] = assay: Toxicity against Metaseiulus occidentalis adults in bean leaf disk infested with two-spotted spider mites assessed as average number of eggs laid (fecundity) at 0.1600 g AI/L treated using worst-case laboratory exposure procedure measured after 24 hr (reference value: 2.11/day)
Galendromus occidentalis [25] = assay: Ovicidal activity against Metaseiulus occidentalis eggs in bean leaf disk infested with two-spotted spider mites assessed as corrected cumulative mortality at 250 g/kg WG formulation treated using worst-case laboratory exposure procedure measured after 144 hr (reference value: 0.7%)

CCC(C)(C)C(=O)OC1=C(c2ccc(Cl)cc2Cl)C(=O)OC12CCCCC2 [SPIRODICLOFEN]
Repellency (Galendromus occidentalis [1]): 13.5% | Repellency (Galendromus occidentalis [2]): 15.4% | Repellency (Galendromus occidentalis [3]): 6.4% | Activity (Galendromus occidentalis [4]): 1.43 day⁻¹ | mortality (Galendromus occidentalis [5]): 2.1% | Activity (Galendromus occidentalis [6]): 1.83 day⁻¹ | Activity (Galendromus occidentalis [7]): 1.93 day⁻¹ | mortality at 240000 µg/mL (stock) (Galendromus occidentalis [8]): 2.3%

N#C/N=C1\SCCN1Cc1ccc(Cl)nc1 [THIACLOPRID]
Repellency (Galendromus occidentalis [9]): 49.4% | Repellency (Galendromus occidentalis [10]): 44.9% | Repellency (Galendromus occidentalis [11]): 12.2% | Activity (Galendromus occidentalis [12]): 1.58 day⁻¹ | mortality (Galendromus occidentalis [13]): 2.8% | mortality (Galendromus occidentalis [14]): 2.3% | Activity (Galendromus occidentalis [15]): 1.26 day⁻¹ | Activity (Galendromus occidentalis [16]): 1.64 day⁻¹ | mortality (Galendromus occidentalis [17]): 5.8% | mortality at 480000 µg/mL (stock) (Galendromus occidentalis [18]): 1.9%

CN1COCN(Cc2cnc(Cl)s2)/C1=N\[N+](=O)[O-] [THIAMETHOXAM]
Repellency (Galendromus occidentalis [19]): 41% | Repellency (Galendromus occidentalis [20]): 34% | Repellency (Galendromus occidentalis [21]): 5.1% | Activity (Galendromus occidentalis [22]): 0.58 day⁻¹ | mortality (Galendromus occidentalis [13]): 8% | mortality (Galendromus occidentalis [14]): 6.2% | Activity (Galendromus occidentalis [23]): 0.33 day⁻¹ | Activity (Galendromus occidentalis [24]): 1.44 day⁻¹ | mortality (Galendromus occidentalis [17]): 8.5% | mortality (Galendromus occidentalis [25]): 4.3%
